Test results published in patent US11414413B2, “Heterocyclic compound as JAK inhibitor, and salts and therapeutic use thereof” (Suzhou Longbiotech Pharmaceuticals Co., Ltd., priority 2016, dated 2022).

Columns and labels:
Format in all cases: biochemical
JAK2 = JAK2 (Homo sapiens (Human), UniProt O60674); assay: Inhibition of JAK2, luminescence kinase assay (ADP-Glo); conditions: purified recombinant JAK2
Method: (§1) The study of the effect of compounds on the activity of purified recombinant JAK was performed by studying the inhibitory activity of the compounds on JAK from the enzymatic level. The experimental principle is to use a luminescence kinase assay to detect the ADP content produced by the reaction of JAK with the substrate Poly (4:1 Glu, Tyr) peptide: after ADP is converted to ATP, ATP can act as a substrate for the Ultra-Glo luciferase catalytic reaction, producing an optical signal. The luminescence signal is positively correlated with the amount of ADP and kinase activity. Therefore, the inhibitory effect of the compounds on the recombinant JAK was determined by observing the luminescence signal produced by the reaction of JAK and the substrate, and was expressed by IC50.
(§2) Experimental method: 10 different concentrations of compounds were incubated with JAK1, JAK2 and JAK3, respectively, for 60 minutes at 37° C. The substrate and ATP were then added, mixed, and reacted at 37° C. for 50 minutes. 25 μl of ADP-Glo™ was added and mixed for 2 minutes. The reaction was carried out for 50 minutes at room temperature. Further, 50 μl of the detection reagent was added and mixed for 2 minutes, and incubated at room temperature for 50 minutes, and detected by a chemiluminometer.

JAK1 = JAK1 (Homo sapiens (Human), UniProt P23458); assay: Inhibition of JAK1, luminescence kinase assay (ADP-Glo); conditions: purified recombinant JAK1
Sequence of JAK1 (P23458 whole entry): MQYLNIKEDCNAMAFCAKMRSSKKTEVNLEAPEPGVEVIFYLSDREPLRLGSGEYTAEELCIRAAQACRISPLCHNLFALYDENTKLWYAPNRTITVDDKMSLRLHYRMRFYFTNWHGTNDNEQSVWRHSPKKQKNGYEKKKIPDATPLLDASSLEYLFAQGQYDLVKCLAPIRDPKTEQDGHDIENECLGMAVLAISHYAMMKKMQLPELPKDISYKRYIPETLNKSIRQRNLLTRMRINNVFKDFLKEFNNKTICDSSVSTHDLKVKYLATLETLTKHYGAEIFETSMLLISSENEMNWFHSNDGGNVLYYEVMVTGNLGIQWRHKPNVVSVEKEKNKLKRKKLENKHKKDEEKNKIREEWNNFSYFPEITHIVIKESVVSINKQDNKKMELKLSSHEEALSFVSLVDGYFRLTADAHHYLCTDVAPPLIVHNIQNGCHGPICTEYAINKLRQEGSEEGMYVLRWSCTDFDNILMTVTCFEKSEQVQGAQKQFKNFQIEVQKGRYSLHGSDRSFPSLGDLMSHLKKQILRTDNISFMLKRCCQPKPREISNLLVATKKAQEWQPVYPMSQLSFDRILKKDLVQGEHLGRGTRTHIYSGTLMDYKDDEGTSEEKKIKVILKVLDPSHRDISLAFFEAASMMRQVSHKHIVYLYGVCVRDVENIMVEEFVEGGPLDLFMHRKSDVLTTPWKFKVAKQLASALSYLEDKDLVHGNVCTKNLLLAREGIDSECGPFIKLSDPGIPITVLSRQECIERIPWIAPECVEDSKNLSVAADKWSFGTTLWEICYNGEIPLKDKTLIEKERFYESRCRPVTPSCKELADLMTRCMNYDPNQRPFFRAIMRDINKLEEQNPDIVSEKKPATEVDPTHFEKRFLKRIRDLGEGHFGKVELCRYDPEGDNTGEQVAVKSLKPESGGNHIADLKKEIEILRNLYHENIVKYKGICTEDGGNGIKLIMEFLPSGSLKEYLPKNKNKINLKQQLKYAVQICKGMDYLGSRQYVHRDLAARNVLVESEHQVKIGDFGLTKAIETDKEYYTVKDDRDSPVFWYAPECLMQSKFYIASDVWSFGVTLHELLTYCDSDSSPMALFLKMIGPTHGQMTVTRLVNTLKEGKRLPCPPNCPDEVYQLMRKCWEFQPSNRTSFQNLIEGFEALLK
Method: as §1, §2

JAK3 = JAK3 (Homo sapiens (Human), UniProt P52333); assay: Inhibition of JAK3, luminescence kinase assay (ADP-Glo); conditions: purified recombinant JAK3
Sequence of JAK3 (P52333 whole entry): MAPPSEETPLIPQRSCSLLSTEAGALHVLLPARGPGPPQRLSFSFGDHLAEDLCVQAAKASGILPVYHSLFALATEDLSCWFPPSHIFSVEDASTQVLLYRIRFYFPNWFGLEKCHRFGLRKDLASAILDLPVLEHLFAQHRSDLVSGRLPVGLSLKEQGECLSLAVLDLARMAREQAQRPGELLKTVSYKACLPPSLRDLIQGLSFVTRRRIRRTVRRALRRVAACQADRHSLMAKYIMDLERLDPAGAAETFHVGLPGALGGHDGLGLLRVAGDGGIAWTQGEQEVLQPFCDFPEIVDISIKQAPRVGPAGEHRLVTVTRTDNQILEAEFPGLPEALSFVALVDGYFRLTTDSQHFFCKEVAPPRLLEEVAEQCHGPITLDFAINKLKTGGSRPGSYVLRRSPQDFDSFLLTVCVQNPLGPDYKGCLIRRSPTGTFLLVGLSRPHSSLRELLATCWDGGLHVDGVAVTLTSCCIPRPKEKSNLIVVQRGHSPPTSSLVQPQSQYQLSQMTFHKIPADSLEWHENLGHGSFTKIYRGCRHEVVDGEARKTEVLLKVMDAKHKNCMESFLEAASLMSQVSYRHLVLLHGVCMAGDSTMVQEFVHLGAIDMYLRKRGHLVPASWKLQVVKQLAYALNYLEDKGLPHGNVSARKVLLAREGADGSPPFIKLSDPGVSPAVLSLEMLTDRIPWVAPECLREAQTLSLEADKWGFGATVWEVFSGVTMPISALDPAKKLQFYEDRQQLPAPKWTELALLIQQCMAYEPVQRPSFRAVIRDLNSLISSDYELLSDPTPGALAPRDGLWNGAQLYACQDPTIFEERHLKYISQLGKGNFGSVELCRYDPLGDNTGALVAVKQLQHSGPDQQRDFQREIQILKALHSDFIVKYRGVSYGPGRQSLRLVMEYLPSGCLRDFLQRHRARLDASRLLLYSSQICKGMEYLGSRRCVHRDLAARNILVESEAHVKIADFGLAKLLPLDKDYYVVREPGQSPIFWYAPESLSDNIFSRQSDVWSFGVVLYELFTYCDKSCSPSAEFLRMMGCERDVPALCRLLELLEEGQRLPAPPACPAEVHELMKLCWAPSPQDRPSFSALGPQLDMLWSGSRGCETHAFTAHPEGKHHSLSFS
Method: as §1, §2

Sequence of JAK2 (O60674 whole entry): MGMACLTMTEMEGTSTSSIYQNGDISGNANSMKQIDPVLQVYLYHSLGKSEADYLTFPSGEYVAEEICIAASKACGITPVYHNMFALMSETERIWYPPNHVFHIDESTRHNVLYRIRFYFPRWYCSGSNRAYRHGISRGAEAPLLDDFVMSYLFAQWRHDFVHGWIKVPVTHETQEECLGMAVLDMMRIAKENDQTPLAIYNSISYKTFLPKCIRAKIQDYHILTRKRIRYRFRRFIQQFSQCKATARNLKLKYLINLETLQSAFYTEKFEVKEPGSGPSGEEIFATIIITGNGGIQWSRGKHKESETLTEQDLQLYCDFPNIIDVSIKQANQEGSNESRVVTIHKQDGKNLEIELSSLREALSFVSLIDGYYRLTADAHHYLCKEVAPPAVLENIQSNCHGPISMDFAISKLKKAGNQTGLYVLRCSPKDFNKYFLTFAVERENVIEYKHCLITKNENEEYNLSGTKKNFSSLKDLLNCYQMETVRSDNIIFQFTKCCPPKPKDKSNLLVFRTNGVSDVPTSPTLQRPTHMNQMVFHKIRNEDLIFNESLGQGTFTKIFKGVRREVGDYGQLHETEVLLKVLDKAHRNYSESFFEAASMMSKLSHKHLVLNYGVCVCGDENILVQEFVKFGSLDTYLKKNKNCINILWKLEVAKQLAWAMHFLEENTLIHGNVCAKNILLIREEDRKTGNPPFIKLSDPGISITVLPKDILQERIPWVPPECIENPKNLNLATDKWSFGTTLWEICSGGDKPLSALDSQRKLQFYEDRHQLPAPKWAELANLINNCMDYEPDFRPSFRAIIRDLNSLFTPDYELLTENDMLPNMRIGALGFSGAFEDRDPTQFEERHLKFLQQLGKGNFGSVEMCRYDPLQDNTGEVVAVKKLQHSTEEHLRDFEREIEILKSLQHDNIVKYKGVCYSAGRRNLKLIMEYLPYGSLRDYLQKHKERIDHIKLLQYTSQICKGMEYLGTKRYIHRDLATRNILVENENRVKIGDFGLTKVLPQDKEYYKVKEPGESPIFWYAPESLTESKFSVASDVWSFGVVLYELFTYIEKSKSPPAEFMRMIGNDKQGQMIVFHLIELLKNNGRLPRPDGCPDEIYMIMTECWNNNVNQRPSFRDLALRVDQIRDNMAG

## CCS(=O)(=O)N1CC(CC#N)(n2cc(-c3c[nH]c4ncccc34)cn2)C1 [Example 1, 2-(3-(4-(1H-pyrrolo[2,3-b]pyridin-3-yl)-1H-pyrazol-1-yl)-1-(ethylsulfonyl)azetidin-3-yl)acetonitrile]
JAK2
  IC50: 20 to 50 nM

## N#CCC1(n2cc(-c3c[nH]c4ncccc34)cn2)CCS(=O)(=O)CC1 [Example 2, 2-(4-(4-(1H-pyrrolo[2,3-b]pyridin-3-yl)-1H-pyrazol-1-yl)-1,1-dioxotetrahydro-2H-thiopyran-4-yl)acetonitrile]
JAK1
  IC50: < 20 nM
JAK2
  IC50: 20 to 50 nM
JAK3
  IC50: > 50 nM

## N#CCC1(n2cc(-c3ccnc4[nH]ccc34)cn2)CCS(=O)(=O)CC1 [Example 4, 2-(4-(4-(1H-pyrrolo[2,3-b]pyridin-4-yl)-1H-pyrazol-1-yl)-1,1-dioxotetrahydro-2H-thiopyran-4-yl)acetonitrile]
JAK1
  IC50: < 20 nM
JAK2
  IC50: < 20 nM
JAK3
  IC50: > 50 nM

## CS(=O)(=O)N1CCC(CC#N)(n2cc(-c3c[nH]c4ncccc34)cn2)CC1 [Example 5]
JAK1
  IC50: < 20 nM
JAK3
  IC50: < 20 nM

## CCS(=O)(=O)N1CC(CC(N)=O)(n2cc(-c3c[nH]c4ncccc34)cn2)C1 [Example 6, 2-(3-(4-(1H-pyrrolo[2,3-b]pyridin-3-yl)-1H-pyrazol-1-yl)-1-(ethylsulfonyl)azetidin-3-yl)acetamide]
JAK1
  IC50: > 50 nM
JAK2
  IC50: > 50 nM
JAK3
  IC50: > 50 nM

## CCS(=O)(=O)N1CC(CC(=O)NCC(F)(F)F)(n2cc(-c3c[nH]c4ncccc34)cn2)C1 [Example 7, 2-(3-(4-(1H-pyrrolo[2,3-b]pyridin-3-yl)-1H-pyrazol-1-yl)-1-(ethylsulfonyl)azetidin-3-yl)-N-(2,2,2-trifluoroethyl)acetamide]
JAK1
  IC50: > 50 nM
JAK2
  IC50: > 50 nM
JAK3
  IC50: > 50 nM

## CCS(=O)(=O)N1CC(CC(=O)NCC(F)(F)F)(n2cc(-c3ncnc4[nH]ccc34)cn2)C1 [Example 8, 2-(3-(4-(1H-pyrrolo[2,3-d]pyrimidin-4-yl)-1H-pyrazol-1-yl)-1-(ethylsulfonyl)azetidin-3-yl)-N-(2,2,2-trifluoroethyl)acetamide]
JAK1
  IC50: > 50 nM
JAK2
  IC50: > 50 nM
JAK3
  IC50: > 50 nM

## CCS(=O)(=O)N1CC(CC(=O)NCC(F)(F)F)(n2cc(-c3ccnc4[nH]ccc34)cn2)C1 [Example 9, 2-(3-(4-(1H-pyrrolo[2,3-b]pyridin-4-yl)-1H-pyrazol-1-yl)-1-(ethylsulfonyl)azetidin-3-yl)-N-(2,2,2-trifluoroethyl)acetamide]
JAK1
  IC50: > 50 nM
JAK2
  IC50: > 50 nM
JAK3
  IC50: > 50 nM

## CCS(=O)(=O)N1CC(CC(=O)NC)(n2cc(-c3ccnc4[nH]ccc34)cn2)C1 [Example 10, 2-(3-(4-(1H-pyrrolo[2,3-b]pyridin-4-yl)-1H-pyrazol-1-yl)-1-(ethylsulfonyl)azetidin-3-yl)-N-methylacetamide]
JAK1
  IC50: > 50 nM
JAK2
  IC50: > 50 nM
JAK3
  IC50: > 50 nM

## CCS(=O)(=O)N1CC(CC(N)=O)(n2cc(-c3ccnc4[nH]ccc34)cn2)C1 [Example 11, 2-(3-(4-(1H-pyrrolo[2,3-b]pyridin-4-yl)-1H-pyrazol-1-yl)-1-(ethylsulfonyl)azetidin-3-yl)acetamide]
JAK1
  IC50: > 50 nM
JAK2
  IC50: > 50 nM
JAK3
  IC50: > 50 nM

## CS(=O)(=O)N1CC(CC(=O)NCC(F)(F)F)(n2cc(-c3ncnc4[nH]ccc34)cn2)C1 [Example 12, 2-(3-(4-(7H-pyrrolo[2,3-d]pyrimidin-4-yl)-1H-pyrazol-1-yl)-1-(methylsulfonyl)azetidin-3-yl)-N-(2,2,2-trifluoroethyl)acetamide]
JAK1
  IC50: 20 to 50 nM
JAK2
  IC50: 20 to 50 nM
JAK3
  IC50: > 50 nM

## CNC(=O)CC1(n2cc(-c3ncnc4[nH]ccc34)cn2)CN(S(C)(=O)=O)C1 [Example 13, 2-(3-(4-(7H-pyrrolo[2,3-d]pyrimidin-4-yl)-1H-pyrazol-1-yl)-1-(methylsulfonyl)azetidin-3-yl)-N-methylacetamide]
JAK1
  IC50: > 50 nM
JAK2
  IC50: > 50 nM
JAK3
  IC50: > 50 nM

## CS(=O)(=O)N1CC(CC(N)=O)(n2cc(-c3ncnc4[nH]ccc34)cn2)C1 [Example 14, 2-(3-(4-(7H-pyrrolo[2,3-d]pyrimidin-4-yl)-1H-pyrazol-1-yl)-1-(methylsulfonyl)azetidin-3-yl) acetamide]
JAK1
  IC50: 20 to 50 nM
JAK2
  IC50: 20 to 50 nM
JAK3
  IC50: > 50 nM

## CS(=O)(=O)N1CC(CC(=O)NCC(F)(F)F)(n2cc(-c3ccnc4[nH]ccc34)cn2)C1 [Example 15, 2-(3-(4-(1H-pyrrolo[2,3-b]pyridin-4-yl)-1H-pyrazol-1-yl)-1-(methylsulfonyl)azetidin-3-yl)-N-(2,2,2-trifluoroethyl)acetamide]
JAK1
  IC50: < 20 nM
JAK2
  IC50: 20 to 50 nM
JAK3
  IC50: < 20 nM

## NC(=O)CC1(n2cc(-c3c[nH]c4ncccc34)cn2)CCS(=O)(=O)CC1 [Example 18, 2-(4-(4-(1H-pyrrolo[2,3-b]pyridin-3-yl)-1H-pyrazol-1-yl)-1,1-dioxotetrahydro-2H-thiopyran-4-yl)acetamide]
JAK1
  IC50: < 20 nM
JAK2
  IC50: > 50 nM
JAK3
  IC50: < 20 nM

## O=C(CC1(n2cc(-c3c[nH]c4ncccc34)cn2)CCS(=O)(=O)CC1)NCC(F)(F)F [Example 19, 2-(4-(4-(1H-pyrrolo[2,3-b]pyridin-3-yl)-1H-pyrazol-1-yl)-1,1-dioxotetrahydro-2H-thiopyran-4-yl)-N-(2,2,2-trifluoroethyl)acetamide]
JAK1
  IC50: 20 to 50 nM
JAK2
  IC50: > 50 nM
JAK3
  IC50: > 50 nM

## O=C(CC1(n2cc(-c3ncnc4[nH]ccc34)cn2)CCS(=O)(=O)CC1)NCC(F)(F)F [Example 20, 2-(4-(4-(7H-pyrrolo[2,3-d]pyrimidin-4-yl)-1H-pyrazol-1-yl)-1,1-dioxotetrahydro-2H-thiopyran-4-yl)-N-(2,2,2-trifluoroethyl)acetamide]
JAK1
  IC50: 20 to 50 nM
JAK2
  IC50: > 50 nM
JAK3
  IC50: > 50 nM

## O=C(CC1(n2cc(-c3ccnc4[nH]ccc34)cn2)CCS(=O)(=O)CC1)NCC(F)(F)F [Example 21, 2-(4-(4-(7H-pyrrolo[2,3-b]pyridin-4-yl)-1H-pyrazol-1-yl)-1,1-dioxotetrahydro-2H-thiopyran-4-yl)-N-(2,2,2-trifluoroethyl)acetamide]
JAK1
  IC50: 20 to 50 nM
JAK2
  IC50: > 50 nM
JAK3
  IC50: > 50 nM

## CS(=O)(=O)N1CCC(CC(=O)NCC(F)(F)F)(n2cc(-c3c[nH]c4ncccc34)cn2)CC1 [Example 22, 2-(4-(4-(7H-pyrrolo[2,3-b]pyridin-3-yl)-1H-pyrazol-1-yl)-1-(methylsulfonyl)piperidin-4-yl)-N-(2,2,2-trifluoroethyl)acetamide]
JAK1
  IC50: > 50 nM
JAK2
  IC50: > 50 nM
JAK3
  IC50: > 50 nM

## CS(=O)(=O)N1CCC(CC(=O)NCC(F)(F)F)(n2cc(-c3ncnc4[nH]ccc34)cn2)CC1 [Example 23, 2-(4-(4-(7H-pyrrolo[2,3-b]pyrimidin-4-yl)-1H-pyrazol-1-yl)-1-(methylsulfonyl)piperidin-4-yl)-N-(2,2,2-trifluoroethyl)acetamide]
JAK1
  IC50: 20 to 50 nM
JAK2
  IC50: > 50 nM
JAK3
  IC50: > 50 nM

## O=C(CC1(n2cc(-c3c[nH]c4ncccc34)cn2)CCCC1)NCC(F)(F)F [Example 25, 2-(1-(4-(1H-pyrrolo[2,3-b]pyridin-3-yl)-1H-pyrazol-1-yl)cyclopentyl)-N-(2,2,2-trifluoroethyl) acetamide]
JAK1
  IC50: 20 to 50 nM
JAK3
  IC50: 20 to 50 nM

## O=C(CC1(n2cc(-c3ncnc4[nH]ccc34)cn2)CCCC1)NCC(F)(F)F [Example 26, 2-(1-(4-(1H-pyrrolo[2,3-b]pyrimidin-4-yl)-1H-pyrazol-1-yl)cyclopentyl)-N-(2,2,2-trifluoroethyl)acetamide]
JAK1
  IC50: 20 to 50 nM

## CS(=O)(=O)N1CC(Nc2ccnc(-c3c[nH]c4ncccc34)n2)(C(=O)NCC(F)(F)F)C1 [Example 31, 3-((2-(1H-pyrrolo[2,3-b]pyridin-3-yl)pyrimidin-4-yl)amino)-1-(methylsulfonyl)-N-(2,2,2-trifluoroethyl)azetidin-3-carboxamide]
JAK1
  IC50: > 50 nM
JAK2
  IC50: > 50 nM

## CCS(=O)(=O)N1CC(Nc2ccnc(-c3c[nH]c4ncccc34)n2)(C(=O)NCC(F)(F)F)C1 [Example 32, 3-((2-(1H-pyrrolo[2,3-b]pyridin-3-yl)pyrimidin-4-yl)amino)-1-(ethylsulfonyl)-N-(2,2,2-trifluoroethyl)azetidin-3-carboxamide]
JAK1
  IC50: > 50 nM
JAK2
  IC50: > 50 nM

## CS(=O)(=O)N1CC(Nc2nc(-c3c[nH]c4ncccc34)ncc2F)(C(=O)NCC(F)(F)F)C1 [Example 34]
JAK1
  IC50: > 50 nM
JAK2
  IC50: > 50 nM

## CCS(=O)(=O)N1CCC(Nc2ccnc(-c3c[nH]c4ncccc34)n2)(C(=O)NCC(F)(F)F)CC1 [Example 38, 4-((2-(1H-pyrrolo[2,3-b]pyridin-3-yl)pyrimidin-4-yl)amino)-1-(ethylsulfonyl)-N-(2,2,2-trifluoroethyl)piperidin-4-carboxamide]
JAK3
  IC50: 20 to 50 nM

## O=C(NCC(F)(F)F)C1(Nc2nc(-c3c[nH]c4ncccc34)ncc2F)CCS(=O)(=O)CC1 [Example 44, 4-((5-fluoro-2-(1H-pyrrolo[2,3-b]pyridin-3-yl)pyrimidin-4-yl)amino)-N-(2,2,2-trifluoroethyl)tetrahydro-2H-thiopyran-4-carboxamide 1,1-dioxide]
JAK1
  IC50: > 50 nM
JAK2
  IC50: 20 to 50 nM

## CCS(=O)(=O)N1CC(C#N)(Nc2ccnc(-c3ccnc4[nH]ccc34)n2)C1 [Example 47, 3-((2-(1H-pyrrolo[2,3-b]pyridin-4-yl)pyrimidin-4-yl)amino)-1-(ethylsulfonyl)azetidine-3-carbonitrile]
JAK3
  IC50: 20 to 50 nM
